Data taken from patent publication US20070197594A1, “Cyclic amine derivative or salt thereof” (ASTELLAS PHARMA INC., priority 2004, published 2007).
Counter-ions that a name gives are not always drawn.

Target: NMDA receptor
Assay: MK-801 binding test ([3H]MK-801-binding assay, rat membrane specimen)
Conditions: NMDA receptor affinity, [3H]MK-801 4 nM in assay, Ki computed from IC50
Protocol: 1) Preparation of Specimens of Rat Meninges:
The whole brain was taken out from 10-week-age SD rats (30 heads, by Nippon SLC), and the cerebellum was removed from it. A 0.32 M sucrose solution was added to the part containing the cerebrum, cut in a mixer, and homogenized with a Teflon™ homogenizer. This was centrifuged at 2800 rpm and 4° C. for 15 minutes, and the resulting supernatant was again centrifuged at 15000 g and 4° C. for 20 minutes. The pellets were suspended in 50 mM Tris-HCL (pH 7.5) containing 0.08% Triton X-100, and kept statically on ice for 30 minutes, then centrifuged at 15000 g and 4° C. for 20 minutes. The pellets were suspended in 50 mM Tris-HCl (pH 7.5) added thereto, and centrifuged at 15000 g and 4° C. for 20 minutes. 50 mM Tris-HCl (pH 7.5) was again added to the pellets, and centrifuged in the same manner as before. The pellets were suspended in 20 ml of 50 mM Tris-HCl (pH 7.5) added thereto, and homogenized with a Teflon™ homogenizer. The membrane specimen was divided into small tubes and stored in a deep freezer (−80° C.). Before use, this washed twice with 5 mM Tris-HCl (pH 7.5) of five times that of the membrane specimen. Its concentration was controlled at 1 mg protein/ml with 5 mM Tris-HCl (pH 7.5) added to it, and this was used for assay.
50 μl of the rat membrane specimen (1 mg protein/ml) was added to a solution of a test compound dissolved in 1 μl of DMSO.

Compound | Ki [nM]
COc1c(F)ccc2c1C1(CCC(CN3CCCC3)O1)C(C)(C)C2 (stereo not shown) [Example 145] | 8400
CCOc1c(F)ccc2c1C(O)(C1CCN(C)CC1)C(C)(C)C2 (stereo not shown) [Example 98] | 8400
CN1CCC(C2(O)c3ccccc3CCC2(C)C)CC1 (stereo not shown) [Example 53] | 4100
CN1CCC(C2(O)c3ccccc3CC2(C)C)CC1 (stereo not shown) [Example 1, 2,2-Dimethyl-1-(1-methylpiperidin-4-yl)indan-1-ol monofumarate] | 1400
Cc1ccc2c(c1)C(O)(C1CCN(C)CC1)C(C)(C)C2 (stereo not shown) [Example 6, 2,2,6-trimethyl-1-(1-methylpiperidin-4-yl)indan-1-ol] | 880
CN1CCC(C2(O)c3c(c(F)cc4c3OCC4)CC2(C)C)CC1 (stereo not shown) [Example 139, 5-Fluoro-7,7-dimethyl-8-(1-methylpiperidin-4-yl)-2,6,7,8-tetrahydro-2H-indeno[4,5-b]furan-8-ol fumarate] | 5000
Cc1ccc2c(c1)C(O)(CC(C)(C)N)C(C)(C)C2 (stereo not shown) [Example 131, 1-(2-Amino-2-methylpropyl)-2,2,6-trimethylindan-1-ol fumarate] | 4800
CN1CCC(C2(O)c3ccc(Br)cc3CC2(C)C)CC1 (stereo not shown) [Example 15] | 860
CN1CCC(C2(O)c3cc(Br)cc(F)c3CC2(C)C)CC1 (stereo not shown) [Example 32] | 440
CN1CCC(C2(O)c3cc(F)ccc3CC2(C)C)CC1 (stereo not shown) [Example 9] | 930
COc1c(F)ccc2c1C(O)(C1CCN(C)CC1)C(C)(C)C2 (stereo not shown) [Example 44] | 930
CN1CCC(C2(O)c3c(ccc(F)c3Br)CC2(C)C)CC1 (stereo not shown) [Example 34] | 1800
COc1ccc(F)c2c1C(O)(C1CCN(C)CC1)C(C)(C)C2 (stereo not shown) [Example 85] | 6200
COc1c(C#N)cc(F)c2c1C(O)(C1CCN(C)CC1)C(C)(C)C2 (stereo not shown) [Example 113] | 900
COc1cc(F)c2c(c1OC)C(O)(C1CCN(C)CC1)C(C)(C)C2 (stereo not shown) [Example 101] | 2100
CN1CCC(C2(O)c3cc(Cl)c(F)cc3CC2(C)C)CC1 (stereo not shown) [Example 28] | 1000
CN1CCC(C23OCCOc4c(F)ccc(c42)CC3(C)C)CC1 (stereo not shown) [Example 143, 4-(9-Fluoro-5,5-dimethyl-2,3,5,6-tetrahydro-4aH-indeno[1,7-ef][1,4]dioxepin-4a-yl-1-methylpiperidine fumarate] | 700
CN1CCC(C2(O)c3c(Br)ccc(F)c3CC2(C)C)CC1 (stereo not shown) [Example 36] | 1900
COc1c(F)c(F)cc2c1C(O)(C1CCN(C)CC1)C(C)(C)C2 (stereo not shown) [Example 108] | 5600
